# Data published in ChEMBL document CHEMBL1177653, “Synthesis and antiplasmodial activity of lycorine derivatives” (Bioorg Med Chem, 2010).
# System: Plasmodium falciparum
# Assay: Antiplasmodial activity against Plasmodium falciparum F32-Tanzania after 48 hrs
row,SMILES,IC50 [µM]
1,C=Cc1cccc2c3cc4c(cc3c(=O)n(CC)c12)OCO4,> 100
2,C=Cc1cccc2c1N(C)Cc1cc(OC(=O)CCCCCCCCCCC)c(OC(=O)CCCCCCCCCCC)cc1-2,47
3,C=Cc1cccc2c1N(C)Cc1cc(OC(C)=O)c(OC(C)=O)cc1-2,0.9
4,C=Cc1cccc2c1N(C)Cc1cc(OC)c(OC)cc1-2,12.4
5,C=Cc1cccc2c1N(CCCC)Cc1cc(OC(C)=O)c(OC(C)=O)cc1-2,0.8
6,C=Cc1cccc2c3cc4c(cc3c(=O)n(CCCC)c12)OCO4,> 100
7,C=Cc1cccc2c1N(CCCCCCCCCCC)Cc1cc3c(cc1-2)OCO3,7.4
8,C=Cc1cccc2c1N(C)Cc1cc(O)c(O)cc1-2,1.1
9,C=Cc1cccc2c1N(CCCC)Cc1cc(O)c(O)cc1-2,> 100
10,C=Cc1cccc2c3cc4c(cc3c(=O)n(C)c12)OCO4,> 100
11,C=Cc1cccc2c1N(CCCC)Cc1cc3c(cc1-2)OCO3,9.7
12,C=Cc1cccc2c1N(C)Cc1cc3c(cc1-2)OCO3,11.3
13,CCCCN1Cc2cc3c(cc2-c2cccc(CC)c21)OCO3,7.4
14,O[C@H]1[C@H]2c3cc4c(cc3CN3CCC(=C[C@@H]1O)[C@H]23)OCO4 [LYCORINE],0.13

# Further lines, results first:
row,IC50 [µM],SMILES
1,8.4,CC(=O)Oc1cc2c(cc1OC(C)=O)[C@@H]1[C@H](O)[C@@H](OC(C)=O)C=C3CCN(C2)[C@H]31
2,> 100,CC(=O)O[C@H]1[C@H]2c3cc4c(cc3C(=O)N3CCC(=C[C@@H]1OC(C)=O)[C@H]23)OCO4
3,9.2,CC(=O)Oc1cc2c3c(c1)c1cc4c(cc1c(=O)n3CC2)OCO4
4,> 100,CC(=O)O[C@@H]1[C@@H](OC(C)=O)[C@H](O)[C@@]2(O)CCN3C(=O)c4cc5c(cc4[C@H]1[C@H]32)OCO5
5,> 100,CC(=O)O[C@H]1[C@H]2c3cc4c(cc3C(=O)N3CCC(=C[C@@H]1O)[C@H]23)OCO4
6,0.6,CCC(C)C(=O)O[C@H]1[C@H]2c3cc4c(cc3CN3CCC(=C[C@@H]1OC(=O)C(C)CC)[C@H]23)OCO4 (some centres not stated)
7,> 100,CCc1cccc2c1N(C)Cc1cc3c(cc1-2)OCO3
8,0.9,CC(=O)O[C@H]1[C@H]2c3cc4c(cc3CN3CCC(=C[C@@H]1O)[C@H]23)OCO4
9,86,C=Cc1cccc2c1N(CC)Cc1cc3c(cc1-2)OCO3
10,0.26,CC(=O)O[C@H]1[C@H]2c3cc4c(cc3CN3CCC(=C[C@@H]1OC(C)=O)[C@H]23)OCO4
11,2.7,CCC(=O)O[C@H]1[C@H]2c3cc4c(cc3CN3CCC(=C[C@@H]1OC(=O)CC)[C@H]23)OCO4
12,34.8,CC(=O)O[C@H]1[C@H]2c3cc4c(cc3CN3CC[C@@H](C[C@@H]1OC(C)=O)[C@H]23)OCO4
13,14.7,O=C1C=C2CCN3Cc4cc5c(cc4[C@H]([C@@H]1O)[C@@H]23)OCO5
